For assay [1], the system named is adult Sprague-Dawley rats. Put plainly: Cetrorelix i.p. injection, suppression of T and LH. It is filed as in vivo, rat. As for the experimental part:
Animals studies. Animals were handled according to protocols approved by the McGill University Animal Care and Use Committees. 60- to 64-day-old male Sprague-Dawley rats were purchased from Charles River, Senneville, QC. Rats were provided standard diets and tap water ad libitum and were maintained in controlled conditions (24° C., 12-h light, 12-h dark schedule). Animals were euthanized, and the testes were either immediately used for organ culture or intratesticular fluid collection, or testes and adrenal glands were snap-frozen for sectioning. Bolus injections with water or indicated doses of TV peptides were performed after administering isofluorane anesthesia. Rats were injected with either water or the indicated dose of TV fusion peptide. When FGIN-1-27 (Sigma-Aldrich, St. Louis, Mo.) was used, 8.5 μg in 50 μl (390 μM) of the compound in 1% DMSO solution containing Tween-20™ was injected into one of the testes of 68-72 day old Sprague-Dawley rats. Animals were incubated in standard conditions for 2 hrs. Surgeries were performed on 60- to 64-day-old rats bolus injection of water or TV peptides. Alzet mini-osmotic pumps releasing 75 ng of filled with water or a TV peptide or water over a course of 24 hrs was surgically implanted in the abdomen. The pumps were connected to a polyethylene catheter tubing (Alzet) and directed to the injected testis. […]

The test system of assay [2] is MA-10 mouse Leydig tumor cells. Put plainly: Progesterone production by MA-10 cells after 8-Br-cAMP (RIA). The format is cell-based. The following applies: 10 μM 19-Atriol with TVS167, 8-Br-cAMP 120 min. Here is the method:
Cell culture, treatments, and steroid measurement. MA-10 mouse Leydig tumor cells were maintained in DMEM/Ham's nutrient mixture F12 (Gibco, Burlington, ON) supplemented with 5% fetal bovine serum, 2.5% hoarse serum, and 1% penicillin and streptomycin at 37° C. and 3.7% CO2. Cells were incubated in serum-free cell culture media supplemented with 1 mM 8-Bromo-cAMP (Enzo Biosciences, Farmingdale, N.Y.) or […] (50 ng/ml) hCG for 15, 30, 60, and 120 min or as indicated. Human NCL-H295R cells were maintained in DMEM/F12 media supplemented with 2.5% Ultroser G (Pall Biospera, Mississauga, ON), 1% penicillin/streptomycin (Invitrogen, Carlsbad, Calif.), and 1% ITS+ Premix (BD Biosciences, Franklin Lakes, N.J.) in a humidified chamber at 37° C. and 5% CO2.
Experiments involving the TV peptides included 1×10^3 MA-10 or NCL-H295R cells, which were initially cultured for 24 hrs. Serum-free media were supplemented with 250 nM TV fusion peptides, and cells were incubated for 90 min after optimization. […]
Progesterone or testosterone levels were measured with specific RIAs in triplicate using commercial anti-sera from rabbit and sheep, respectively (MP Biomedicals, Santa Ana, Calif.). Protein levels in MA-10 cell lysates were determined with the Bradford dye assay (Bio-Rad). LH and corticosterone levels were measured with rat-specific ELISA kits (CUSABIO, Wuhan, China).

Another assay relates to Sprague-Dawley rats. Put plainly: FGIN-1-27 bolus intratesticular injection, T levels after 2 hrs. To be noted: for intratesticular T levels / plasma T levels: 8.5 μg bolus, 2 hrs. It is filed as in vivo, rat. As for the experimental part: Animals studies. Animals were handled according to protocols approved by the McGill University Animal Care and Use Committees. 60- to 64-day-old male Sprague-Dawley rats were purchased from Charles River, Senneville, QC. Rats were provided standard diets and tap water ad libitum and were maintained in controlled conditions (24° C., 12-h light, 12-h dark schedule). Animals were euthanized, and the testes were either immediately used for organ culture or intratesticular fluid collection, or testes and adrenal glands were snap-frozen for sectioning. Bolus injections with water or indicated doses of TV peptides were performed after administering isofluorane anesthesia. Rats were injected with either water or the indicated dose of TV fusion peptide. When FGIN-1-27 (Sigma-Aldrich, St. Louis, Mo.) was used, 8.5 μg in 50 μl (390 μM) of the compound in 1% DMSO solution containing Tween-20™ was injected into one of the testes of 68-72 day old Sprague-Dawley rats. Animals were incubated in standard conditions for 2 hrs. Surgeries were performed on 60- to 64-day-old rats bolus injection of water or TV peptides. Alzet mini-osmotic pumps releasing 75 ng of filled with water or a TV peptide or water over a course of 24 hrs was surgically implanted in the abdomen. The pumps were connected to a polyethylene catheter tubing (Alzet) and directed to the injected testis. The pump released 75 ng TV peptide to the testis over a course of 24 hrs at the rate of 1 μl/hour. GnRH antagonist, Cetrorelix™ (Sigma Aldrich) was injected into 59-day-old rats intraperitoneally (i.p.) at 0.4 mg/animal/day for 0-4 days (Horvath et al. 2004). Animal dissection was performed after CO2 anesthesia. Cardiac puncture was used for blood collection, and further centrifugation yielded serum separation. Testes were dissected and either decapsulated for intratesticular fluid collection or snap-frozen for sectioning.
To further assess the link between VDAC1 and TSPO function in vivo, the acute effect of TVS167 was compared to that of a well characterized high affinity TSPO drug ligand, N,N-dihexyl-2-(4-fluorophenyl)indole-3-acetamide (FGIN-1-27) (Perheentupa et al. 2009), in the absence of LH signaling. Sprague-Dawley rats of 68-72 days old were given an i.p. injected of either H2O or 0.4 mg Cetrorelix™ for 0-4 days. On day 4, a bolus intratesticular injection of 8.5 μg FGIN-1-27 or its solvent (control) was given to one testis per animal. To assess the acute effect of this TSPO drug ligand on steroidogenesis intratesticular and circulating T levels were measured after 2 hrs.

The structures appear in SMILES notation. Entries after “also recorded” stand apart in the source; their conditions may differ. Square brackets hold non-standard residues; d marks the D form. Peptide text beside a SMILES is read from it. dPhe(4-Cl) = N[C@H](Cc1ccc(Cl)cc1)C(=O)O; d2Nal = N[C@H](Cc1ccc2ccccc2c1)C(=O)O; dCit = NC(=O)NCCC[C@@H](N)C(=O)O; d3Pal = N[C@H](Cc1cccnc1)C(=O)O

Take `CC(=O)N[C@H](Cc1ccc2ccccc2c1)C(=O)N[C@H](Cc1ccc(Cl)cc1)C(=O)N[C@H](Cc1cccnc1)C(=O)N[C@@H](CO)C(=O)N[C@@H](Cc1ccc(O)cc1)C(=O)N[C@H](CCCNC(N)=O)C(=O)N[C@@H](CC(C)C)C(=O)N[C@@H](CCCNC(=N)N)C(=O)N1CCC[C@H]1C(=O)N[C@H](C)C(N)=O` [Cetrorelix] (Ac-[d2Nal][dPhe(4-Cl)][d3Pal]SY[dCit]LRP[dA]-NH2): the “T levels in testes and serum” value in assay [1] (0.4 mg/day i.p. for four days) is given as “completely suppressed; also recorded: blocked”. Also, in assay [1] (adult rats), the LH release entry is “blocked LH release”.

With `C[C@]12CC[C@H]3[C@@H](CC=C4C[C@@H](O)CC[C@@]43CO)[C@@H]1CC[C@@H]2O` [19-Atriol], the “effect on TVS167-stimulated steroid formation” value in assay [2] is “stimulatory effect of TVS167 on steroid formation was blocked”.

Regarding `CCCCCCN(CCCCCC)C(=O)Cc1c(-c2ccc(F)cc2)[nH]c2ccccc12` [FGIN-1-27, N,N-dihexyl-2-(4-fluorophenyl)indole-3-acetamide], the “intratesticular T levels” value in the assay on Sprague-Dawley rats (Cetrorelix-treated rats) and in the assay on Sprague-Dawley rats (control (H2O i.p.) rats) was “significant increase” throughout. The “plasma T levels” value in the assay on Sprague-Dawley rats (Cetrorelix-treated rats) was “increased”; in the assay on Sprague-Dawley rats (control (H2O i.p.) rats), “increased only in the Cetrorelix-treated animals”. The “acute T formation in vivo compared with TVS167” value in the assay on Sprague-Dawley rats (control and Cetrorelix-treated rats) was “to a lesser extent that TVS167”.

(Values after patent publication US10301357B2, “Therapeutics for the induction of endogenous steroidogenesis and methods associated with their identification” (THE ROYAL INSTITUTION FOR THE ADVANCEMENT OF …, priority 2013, dated 2019).)
